Where two headings read alike, the source gives them in different places.
Legend:
[1] = tested on: osteoclast differentiation; test: Inhibitory effects on osteoclast differentiation (co-culture of bone marrow cells with osteoblast, TRAP staining); type: cell-based, mice; details: co-culture of bone marrow cells and osteoblast, 7 days, TRAP-positive osteoclasts versus controls; for inhibition at 1 µM: Mus musculus, Osteoclast, 168 h, read-out: % inhibitory activity on osteoclastogenesis
Method in brief: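 Bone marrow cells from 6–8-week male ddY mice co-cultured with neonatal ICR mouse calvarial osteoblasts in α-MEM/FBS with dexamethasone (10^−7M) and vitamin D3 (10^−8M) for 7 days, compound and medium renewed every 2–3 days. TRAP-positive cells with ≥3 nuclei counted; inhibition given as percent of control.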

ovariectomized ddY mouse = test: Therapeutic effect in the ovariectomized osteoporetic mouse model (trabecular bone volume of the femur); type: in vivo, ddY mice; details: 50 mg/kg/day oral gavage for 4 weeks from 4 weeks after ovariectomy, salts (methansulfonic acid or HCl); for change in vivo at 50 mg/kg: Mus musculus, 672 h, read-out: Changes on TBV (% changes vs vehicle control)
Procedure: The therapeutic effects of each benzamidine derivates were evaluated on the ovariectomized ddY mouse. Benzamidine derivates were dosed from 4 weeks after operation for 4 weeks and the changes on the trabecular bone volume (TBV) of the femur were observed via histomorphometry.
Female ddY mice (6-wk old upon receipt, SLC, Japan) were used after acclimatization for 7 days. Animals were allocated 5 per polycarbonate cage in a temperature (20-25° C.) and humidity (30-35%) controlled room. Light:dark cycle was 12 hr:12 hr and feed (Samyang, Korea) and water were supplied free to access.
Salts of benzamidine derivates (Methansulfonic acid or HCl) were used for the test substances of this invention. Test substances are dissolved and/or suspended in injectable distilled water and administered at a dosage volume of 10 ml/kg by oral gavage. All test substances are dosed from 4 weeks after operation for 4 weeks at 50 mg/kg/day.
To induce estrogen-deficient osteoporosis, bilateral ovaries are removed and then closed by routine methods. Operation was conduct under Ketamine hydrochloride and xylazine hydrochloride anesthesia.
The left femur of each mouse were separated at sacrifice, and fixed in 10% neutral buffered formalin (NBF), then decalcified in decalcifying solution (24.4% formic acid, and 0.5N sodium hydroxide) for 5 days (mixed decalcifying solution was exchanges once a day for 5 days). After the dexalcification, the femur was embedded in paraffin, sectioned (3˜4 μm) and stained with hematoxylin-eosin stain.
TBV was calculated using automated image analysis (analySIS Image Processing; SIS, Germany) under magnification of ×200 in the uniform area of trochlea epiphyseal regions (growth plate regions were excluded) of prepared histological specimens. TBV was calculated as percentage (%) levels.
The changes of TBV compared to that of vehicle control are calculated as following Equation 1 to help the understanding of the efficacy of test substances. Percentage changes=[((TBV of a−TBV of b)/TBV of b)×100] Equation 1

cells = test: Cytotoxicity test (MTT); type: cell-based; details: 10^−6M, 72 hrs, compared with the control group
Procedure: Cytotoxic effect of benzamidine derivatives was evaluated by the experiment described below.
The test substance was diluted in appropriate solvent at 10^−2M concentration. […] Cells to be used in cytotoxitic test were plated on a 96-well microplate in a dose of 1×10^4 cell/100 μL per well and cultured for 72 hrs. 25 μL of MTT [3-(4,5-dimethyl-2-thiazolyl)-2,5-diphenyl-2H-tetrazolium bromide] dissolved in PBS at 2 mg/mL were added before 4 hrs of the end of culture. After reaction, the plates were centrifuged, medium was decanted and 100 μL of DMSO was added to dissolve formazan. Lastly, the absorbance of developed plates was measured at 540 nm.

Structure (SMILES) | inhibition at 1 µM ([1]; 1 μm) | change in vivo at 50 mg/kg (ovariectomized ddY mouse) | inhibition at 1 µM ([1]; 1 m) | Survival rates of the cells (cells; MC3T3-E1 cells) | Survival rates of the cells (cells; ST2 cells) | % inhibitory activity on osteoclastogenesis [1] | Changes on TBV (% changes vs vehicle control) (ovariectomized ddY mouse)
Cc1nc(-c2ccc(OCCCCCOc3ccc(C(=N)NO)cc3)cc2)c(C2CCCC2)s1 [Example 43, N-hydroxy-4-(5-[4-(5-cyclopentyl-2-methyl-1,3-thiazol-4-yl)phenoxy]pentoxy)-benzamidine] | 98.6% | 155% | – | – | – | – | –
CCCNc1nc(-c2ccc(OCCCCCOc3ccc(C(=N)NO)cc3)cc2)c(CC2CCCC2)s1 [Example 111, N-hydroxy-4-(5-[4-(5-cyclopentylmethyl-2-propylamino-1,3-thiazol-4-yl)phenoxy]pentoxy)-benzamidine] | – | 69.3% | 99.5% | – | – | – | –
CCN(CCO)c1nc(-c2ccc(OCCCCCOc3ccc(C(=N)NO)cc3)cc2)c(C)s1 [Example 121, N-hydroxy-4-(5-[4-(2-(ethyl-(2-hydroxyethyl)-amino)-5-methyl-1,3-thiazol-4-yl)phenoxy]pentoxy)-benzamidine] | – | – | 69.4% | 100.0% | 41.4% | – | –
Cc1sc(N(C)Cc2ccccc2)nc1-c1ccc(OCCCCCOc2ccc(C(=N)NO)cc2)cc1 [Example 125, N-hydroxy-4-(5-[4-(2-(benzyl-methyl-amino)-5-methyl-1,3-thiazol-4-yl)phenoxy]pentoxy)-benzamidine] | – | – | 73% | 57.6% | 47.9% | – | –
CCc1sc(N(CC)CCO)nc1-c1ccc(OCCCCCOc2ccc(C(=N)NO)cc2)cc1 [Example 130, N-hydroxy-4-(5-[4-(5-ethyl-2-(ethyl-(2-hydroxyethyl)-amino)-1,3-thiazol-4-yl)phenoxy]pentoxy)-benzamidine] | – | – | 55.8% | 100.0% | 37.2% | – | –
CCc1sc(N(C)Cc2ccccc2)nc1-c1ccc(OCCCCCOc2ccc(C(=N)NO)cc2)cc1 [Example 133, N-hydroxy-4-(5-[4-(2-(benzyl-methyl-amino)-5-ethyl-1,3-thiazol-4-yl)phenoxy]pentoxy)-benzamidine] | – | – | 76.6% | 62.6% | 46.4% | – | –
CCc1sc(N(C)Cc2cccnc2)nc1-c1ccc(OCCCCCOc2ccc(C(=N)NO)cc2)cc1 [Example 134, N-hydroxy-4-(5-[4-(5-ethyl-2-(methyl-(pyridin-3-yl-methyl)amino)-1,3-thiazol-4-yl)phenoxy]pentoxy)-benzamidine] | – | – | 63.7% | 43.9% | 37.4% | – | –
CCc1sc(N(CC)Cc2cccnc2)nc1-c1ccc(OCCCCCOc2ccc(C(=N)NO)cc2)cc1 [Example 136, N-hydroxy-4-(5-[4-(5-ethyl-2-(ethyl-(pyridin-3-yl-methyl)amino)-1,3-thiazol-4-yl)phenoxy]pentoxy)-benzamidine] | – | – | 49.2% | 48.5% | 29.9% | – | –
CCc1sc(N(CCO)CCO)nc1-c1ccc(OCCCCCOc2ccc(C(=N)NO)cc2)cc1 [Example 139, N-hydroxy-4-(5-[4-(2-(bis-(2-hydroxyethyl)amino)-5-ethyl-1,3-thiazol-4-yl)phenoxy]pentoxy)-benzamidine] | – | – | 84.1% | 77.4% | 48.1% | – | –
CC(C)c1sc(N(C)Cc2cccnc2)nc1-c1ccc(OCCCCCOc2ccc(C(=N)NO)cc2)cc1 [Example 141, N-hydroxy-4-(5-[4-(5-isopropyl-2-(methyl-(pyridin-3-yl-methyl)amino)-1,3-thiazol-4-yl)phenoxy]pentoxy)-benzamidine] | – | – | 74.8% | 52.8% | 27.9% | – | –
CCCCc1sc(N(C)Cc2cccnc2)nc1-c1ccc(OCCCCCOc2ccc(C(=N)NO)cc2)cc1 [Example 145, N-hydroxy-4-(5-[4-(5-butyl-2-(methyl-(pyridin-3-yl-methyl)amino)-1,3-thiazol-4-yl)phenoxy]pentoxy)-benzamidine] | – | 91.7% | 96.2% | – | – | – | –
CCCCc1sc(N(CCC)CCC)nc1-c1ccc(OCCCCCOc2ccc(C(=N)NO)cc2)cc1 [Example 146, N-hydroxy-4-(5-[4-(5-butyl-2-dipropylamino-1,3-thiazol-4-yl)phenoxy]pentoxy)-benzamidine] | – | – | 94.4% | 88.4% | 38.2% | – | –
CN(Cc1cccnc1)c1nc(-c2ccc(OCCCCCOc3ccc(C(=N)NO)cc3)cc2)c(CC2CCCC2)s1 [Example 147, N-hydroxy-4-(5-[4-(5-cyclopentylmethyl-2-(methyl-(pyridin-3-yl-methyl)amino)-1,3-thiazol-4-yl)phenoxy]pentoxy)-benzamidine] | – | – | 81.1% | 100.0% | 42.4% | – | –
CCCCc1sc(N(C)C)nc1-c1ccc(OCCCCCOc2ccc(C(=N)NO)cc2)cc1 [Example 152, N-hydroxy-4-(5-[4-(5-butyl-2-dimethylamino-1,3-thiazol-4-yl)phenoxy]pentoxy)-benzamidine] | – | 71.5% | 83.8% | – | – | – | –
Cc1sc(N2CCOCC2)nc1-c1ccc(OCCCCCOc2ccc(C(=N)NO)cc2)cc1 [Example 165, N-hydroxy-4-(5-[4-(5-methyl-2-morpholino-1,3-thiazol-4-yl)phenoxy]pentoxy)-benzamidine] | – | 37.5% | 66.9% | – | – | – | –
CCc1sc(N2CCCCC2)nc1-c1ccc(OCCCCCOc2ccc(C(=N)NO)cc2)cc1 [Example 166, N-hydroxy-4-(5-[4-(5-ethyl-2-piperdino-1,3-thiazol-4-yl)phenoxy]pentoxy)-benzamidine] | – | – | – | 71.2% | 52.4% | 81.2% | –
N=C(NO)c1ccc(OCCCCCOc2ccc(-c3nc(N4CCCCC4)sc3CC3CCCC3)cc2)cc1 [Example 167, N-hydroxy-4-(5-[4-(5-cyclopentylmethyl-2-piperdino-1,3-thiazol-4-yl)phenoxy]pentoxy)-benzamidine] | – | – | – | – | – | 99.0% | 55.2%
N=C(NO)c1ccc(OCCCCCOc2ccc(-c3nc(N4CCOCC4)sc3CC3CCCC3)cc2)cc1 [Example 168, N-hydroxy-4-(5-[4-(5-cyclopentylmethyl-2-morpholino-1,3-thiazol-4-yl)phenoxy]pentoxy)-benzamidine] | – | 56.6% | 87% | – | – | – | –
Cc1nc(-c2ccc(OCCCCCNc3ccc(C(=N)NO)cc3)cc2)c(C(C)C)s1 [Example 177, N-hydroxy-4-(5-[4-(5-isopropyl-2-methyl-1,3-thiazol-4-yl)phenoxy]-pentylamino)-benzamidine] | – | 88.7% | 96.1% | – | – | – | –
Cc1nc(-c2ccc(OCCCN3CCN(CCCOc4ccc(C(=N)NO)cc4)CC3)cc2)c(C(C)C)s1 [Example 181, N-hydroxy-4-(3-[4-(3-(4-(5-isopropyl-2-methyl-1,3-thiazol-4-yl)-phenoxy)-propyl)-piperazin-1-yl]-propoxy)-benzamidine] | – | – | 54.1% | 99.5% | 36.7% | – | –
Cc1nc(-c2ccc(OCC=CCOc3ccc(C(=N)NO)cc3)cc2)c(C(C)C)s1 [Example 184, N-hydroxy-4-(4-[4-(5-isopropyl-2-methyl-1,3-thiazol-4-yl)-phenoxy]-2-butenyloxy)-benzamidine] | – | 147% | 74.5% | – | – | – | –
Cc1nc(-c2ccc(OCCCCCOc3ccc(C(=N)NO)c(F)c3)cc2)c(C(C)C)s1 [Example 187, N-hydroxy-2-fluoro-4-(5-[4-(5-isopropyl-2-methyl-1,3-thiazol-4-yl)-phenoxy]-pentoxy)-benzamidine] | – | 117% | 92.5% | – | – | – | –
